Results on one compound are retold here after PMC6407913, “DREADD Agonist 21 Is an Effective Agonist for Muscarinic-Based DREADDs in Vitro and in Vivo” (ACS Pharmacology & Translational Science, 2018).

The target in assay [1] is T1, hM4Di (Homo sapiens, UniProt P08173, A203G/Y113C).
T1 sequence (P08173 1-479 Y113C/A203G): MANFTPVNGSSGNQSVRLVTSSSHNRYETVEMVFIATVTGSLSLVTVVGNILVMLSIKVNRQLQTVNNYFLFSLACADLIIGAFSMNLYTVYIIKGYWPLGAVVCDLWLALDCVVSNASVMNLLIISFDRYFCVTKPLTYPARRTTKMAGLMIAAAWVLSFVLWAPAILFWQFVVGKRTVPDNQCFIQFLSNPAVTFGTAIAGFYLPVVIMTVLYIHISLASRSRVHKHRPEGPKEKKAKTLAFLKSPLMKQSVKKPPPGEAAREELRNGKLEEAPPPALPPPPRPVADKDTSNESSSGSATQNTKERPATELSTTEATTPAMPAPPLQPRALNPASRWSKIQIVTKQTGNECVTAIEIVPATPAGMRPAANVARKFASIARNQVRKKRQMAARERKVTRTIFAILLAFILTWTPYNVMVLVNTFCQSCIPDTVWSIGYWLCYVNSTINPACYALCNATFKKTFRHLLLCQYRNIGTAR
Briefly: inhibition of isoproterenol-stimulated cAMP production. The class given is cell-based. Also on record: expressed in transfected cells. Particulars: inhibition of isoproterenol elevated cAMP, mean (±SEM).

Assay [2] addresses T2, hM1Dq (Homo sapiens, UniProt P11229, A196G/Y106C).
T2 sequence (P11229 1-460 Y106C/A196G): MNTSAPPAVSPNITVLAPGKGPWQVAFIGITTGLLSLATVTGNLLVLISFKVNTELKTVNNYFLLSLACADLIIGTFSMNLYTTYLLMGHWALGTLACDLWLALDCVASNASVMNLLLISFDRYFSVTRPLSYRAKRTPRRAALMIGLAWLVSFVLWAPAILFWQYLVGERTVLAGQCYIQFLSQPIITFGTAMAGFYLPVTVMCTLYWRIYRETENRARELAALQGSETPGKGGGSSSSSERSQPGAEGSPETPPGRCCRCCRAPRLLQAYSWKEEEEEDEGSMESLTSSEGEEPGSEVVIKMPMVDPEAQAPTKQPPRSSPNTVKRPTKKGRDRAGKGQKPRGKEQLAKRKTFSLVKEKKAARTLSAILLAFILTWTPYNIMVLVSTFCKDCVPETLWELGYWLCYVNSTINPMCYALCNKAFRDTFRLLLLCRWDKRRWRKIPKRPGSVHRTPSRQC
Briefly: IP-One accumulation assay.

The subject of assay [3] is hM3Dq-expressing lateral hypothalamic vGAT neurons. Briefly: recordings from lateral hypothalamic vGAT neurons. The class given is cell-based.
For assay [4], the target named is T3, hM1 (Homo sapiens, UniProt P11229).
T3 sequence (P11229 1-460): T2 sequence (P11229 1-460 Y106C/A196G) with C106Y, G196A
Briefly: ERK1/2 phosphorylation (pERK1/2) assay. The class given is cell-based. The settings on record: wildtype hM1.

Assay [5] deals with T2, hM1Dq. In words: whole-cell [3H]NMS competition binding.
Assay [6] has as its target T3, hM1. Briefly: IP-One accumulation assay. The class given is cell-based. Particulars: wildtype hM1.
Assay [7] concerns the target dopamine D1 receptors (Homo sapiens, UniProt P21728). Briefly: cAMP signaling concentration-response, agonist mode. The class given is cell-based. The protocol: HEK293 T cells were used for transient transfections and Gi mediated cAMP production assays. Assays were performed according to published procedures (PMID25895059, PRESTO-Tango paper). More detailed assay protocols are available at NIMH PDSP Web site (http://pdspdb.unc.edu/pdspWeb/?site=assays).
HEK293T cells in 10 cm plates were transfected with 4 μg of Glosensor and 4 μg of DNA encoding the human dopamine D1 receptor. The next day, cells were harvested and plated in polylysine-coated 384-well plates (Greiner) at a density of 20 000 cells/well in DMEM containing 1% dFBS. The next day, media was aspirated from each well and replaced with 20 μL of assay buffer containing 4 mM luciferin. Then, 10 μL of drugs were added 30 min later, and plates were read after 15 min.

The target of assay [8] is T3, hM1. Briefly: pERK assay, antagonist mode (shift of ACh curve). The assay is classed as cell-based. Particulars: hM1, CHO cells. From the text: In the absence of C21 ([B] = 0), this equation becomes the standard four-parameter logistic equation for fitting agonist concentration–response data.
For assay [9], the target named is T4, hM3Dq (Homo sapiens, UniProt P20309, A239G/Y149C).
T4 construct: expressed in transfected cells
Briefly: Gq-mediated calcium release (FLIPR) assay. The assay is classed as cell-based. The settings on record: CHO cells, mean ± SEM, read-out: pEC50 calcium mobilization (converted).

The target in assay [10] is T5, hM4 (Homo sapiens, UniProt P08173).
T5 construct: HA (hemagglutinin); expressed in transfected cells
T5 sequence (P08173 1-479): T1 sequence (P08173 1-479 Y113C/A203G) with C113Y, G203A
Briefly: inhibition of isoproterenol-stimulated cAMP production. The class given is cell-based. Particulars: hM4, inhibition of isoproterenol elevated cAMP, mean (±SEM).

Assay [11] deals with T5, hM4. Briefly: whole-cell [3H]NMS competition binding. The settings on record: hM4, FlpIn CHO cells, mean (±SEM).

Substitutions are numbered along the chain they refer to.

T4 sequence (P20309 whole entry Y149C/A239G): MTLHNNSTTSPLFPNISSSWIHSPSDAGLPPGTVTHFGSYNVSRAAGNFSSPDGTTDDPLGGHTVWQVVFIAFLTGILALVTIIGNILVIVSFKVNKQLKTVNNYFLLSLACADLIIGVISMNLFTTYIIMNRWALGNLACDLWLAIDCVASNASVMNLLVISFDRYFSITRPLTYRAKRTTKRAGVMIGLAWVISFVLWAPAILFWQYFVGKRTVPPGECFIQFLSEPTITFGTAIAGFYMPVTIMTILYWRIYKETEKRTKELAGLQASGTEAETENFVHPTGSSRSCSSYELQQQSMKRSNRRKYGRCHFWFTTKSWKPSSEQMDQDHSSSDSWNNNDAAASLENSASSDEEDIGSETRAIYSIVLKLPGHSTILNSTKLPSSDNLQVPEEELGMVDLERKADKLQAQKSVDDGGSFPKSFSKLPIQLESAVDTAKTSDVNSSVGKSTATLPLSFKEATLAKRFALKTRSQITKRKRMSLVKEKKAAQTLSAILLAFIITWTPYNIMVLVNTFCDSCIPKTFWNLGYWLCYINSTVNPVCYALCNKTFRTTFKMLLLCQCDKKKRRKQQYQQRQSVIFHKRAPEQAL
Sequence of dopamine D1 receptors (P21728 whole entry): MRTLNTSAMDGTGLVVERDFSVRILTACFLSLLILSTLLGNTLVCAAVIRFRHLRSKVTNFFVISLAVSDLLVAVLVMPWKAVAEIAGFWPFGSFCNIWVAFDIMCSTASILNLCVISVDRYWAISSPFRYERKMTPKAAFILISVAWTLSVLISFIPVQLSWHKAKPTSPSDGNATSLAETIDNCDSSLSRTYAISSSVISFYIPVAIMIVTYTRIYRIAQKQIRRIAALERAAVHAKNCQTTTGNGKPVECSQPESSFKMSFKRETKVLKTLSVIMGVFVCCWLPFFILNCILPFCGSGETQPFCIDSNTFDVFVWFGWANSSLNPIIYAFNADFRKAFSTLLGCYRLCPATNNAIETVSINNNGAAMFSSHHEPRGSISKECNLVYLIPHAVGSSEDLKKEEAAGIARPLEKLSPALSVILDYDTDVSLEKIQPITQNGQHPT

For the compound `c1ccc2c(c1)N=C(N1CCNCC1)c1ccccc1N2` [C21, 11-(1-piperazinyl)-5H-dibenzo[b,e][1,4]diazepine], the EC50 is 17.8 nM in [1], 1.23 nM in assay [2], 3.31 nM in [9] and 1860 nM in assay [10]. In addition, the depolarization of neurons entry in assay [3] is recorded as “depolarization”. Further, the “agonist activity in pERK1/2 assay” value in assay [4] is on record as “no agonist activity”. Further, the results for the Ki in assay [5] and in assay [11] were 63.1 nM and 3630 nM, respectively. The “higher binding affinity at hM1Dq than at wildtype hM1” value in assay [5] (hM1Dq vs hM1) was above 10 fold. Further, the “agonist activity in IP1 assay” value in assay [6] is on record as “no agonist activity”. Also, the “agonist activity, follow-up concentration-response (cAMP)” value in [7] is listed as “minimal activity”. In addition, in [8], the “antagonist activity (shift of acetylcholine curve, pERK)” value is “weak functional antagonism”.
